For orientation: IC50 means the concentration that inhibits the measured activity by half.

Assay [1] deals with T1, ADP P2Y12 receptor (Homo sapiens, UniProt Q9H244).
T1 construct: expressed in transfected cells
Briefly: FLIPR calcium assay transducing Gi-coupled signaling to the Gq pathway (inhibition of ADP-induced calcium mobilization). The format is cell-based. Particulars: HEK 293 cells co-transfected with P2Y12 and Gqi5, ADP at EC60-70 dose. The text has this:
A FLIPR Calcium Assay Transducing Gi-Coupled Signaling to the Gq Pathway
The ADP P2Y12 subtype is a Gi coupled GPCR, which mediates inhibition of adenylate cyclase leading to decreased cAMP while Gq proteins primarily activate phospholipase C, which stimulates inositol-1,4,5-triphosphate (IP3) formation and a subsequent increase in intracellular Ca^2+ concentration, which can be easily measured by FLIPR. Prior to the development of a method to convert a Gi coupled GPCR signaling to a Gq coupled GPCR signaling, a significant barrier existed for the functional testing and screening of Gi coupled GPCRs. One popular method, GTPγS migration, is slow, produces a small signal and generates radioactive waste. The discovery that a small switch in the amino acid sequence in the Gi protein could convert it to a protein mediating a Gq coupled response has led to the development of robust, high throughput assays for this valuable receptor subtype.
The FLIPR-based HTS assay transducing the Gi signaling to the Gq pathway is described below.
pcDNA3hygroP2Y12 containing a hygromycin resistance gene and pLEC1-Gqi5-HA containing a neomycin resistance gene (licensed from Molecular Devices, Sunnyvale, Calif.) were co-transfected into Human embryonic kidney (HEK) 293 cells with SuperFect (Qiagen, Valencia, Calif.). Cell clones were selected in the presence of 600 μg/ml hygromycin B (Life Technologies, Carlsbad, Calif.) and 1 mg/ml of G418 (Mediatech, Herndon, Va.). Drug resistant colonies were picked and screened by FLIPR and the gene expression was further confirmed by RT-PCR. Positive clones were maintained in growth medium (DMEM supplemented with 10% FBS, 1× p/s) containing 400 μg/ml of G418 and 200 μg/ml of hygromycin.
The day before the assay, cells are seeded in clear, flat-bottom black-wall, tissue culture treated polystyrene 96- or 384-well plates and incubated at 37° C., 5% CO2. 50 μl of complete dye loading solution (FLIPR Calcium Assay Kit, Molecular Devices) was added to each well containing 100 μl of culture media. The cells were incubated for at least 30 min at 37° C., in 5% CO2 before initiating the assay on the FLIPR. The agonist effect of ADP was tested and EC50 was determined prior to compound testing. The EC60-70 dose was used.
The antagonist compounds were prepared at 4× and the agonists were diluted at 5× the concentration desired in the test wells, and then aliquoted into the sample plates. The sample plates and the cell plate were placed in the FLIPR assay chamber. A first addition (50 μl) was made at the start of reading and a second addition (50 μl) was made after 5 min of reading. Raw fluorescence data was exported for each well and tabulated versus time within an ASCII file. Data was then imported into Excel and the peak response over the basal level was determined. The percent inhibition for each compound was calculated by the change in fluorescent density as a % inhibition of the control ADP response to obtain an IC50, as shown in Table 1 (wherein N/A means Not Applicable).
A general note: Calcium flux is commonly read through the fluorescence of an indicator in the cells.

Assay [2] deals with T2, P2Y12 receptor (Homo sapiens, UniProt Q9H244).
T2 construct: expressed in transfected cells
T2 sequence (Q9H244 whole entry): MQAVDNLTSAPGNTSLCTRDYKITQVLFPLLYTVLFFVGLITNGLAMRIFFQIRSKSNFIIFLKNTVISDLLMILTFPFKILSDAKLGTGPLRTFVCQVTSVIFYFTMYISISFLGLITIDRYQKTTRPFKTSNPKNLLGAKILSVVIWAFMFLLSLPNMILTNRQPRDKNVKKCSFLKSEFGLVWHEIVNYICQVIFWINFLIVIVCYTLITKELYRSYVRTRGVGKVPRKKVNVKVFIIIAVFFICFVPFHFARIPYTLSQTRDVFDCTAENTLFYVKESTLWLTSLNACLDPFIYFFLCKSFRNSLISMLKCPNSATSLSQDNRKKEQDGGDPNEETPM
Briefly: Whole cell receptor binding assay, 2-MeS[3H]-ADP. Particulars: HEK 293 cells stably transfected with P2Y12; 2-MeS[3H]-ADP 3 nM; 30 min at 37° C.; read-out: Inhibition of Receptor Binding (IC50 μM). How it is done: A whole cell-binding assay for 2-MeS [^3H]-ADP (Custom synthesized by Amersham BioScience, Piscataway, N.J.) to the P2Y12 receptor was performed.
A P2Y12 cDNA containing hygromycin resistant gene was transfected in HEK 293 cells. A stable cell line was obtained by a cloning selection method. The cells were cultured in DMEM supplemented with 10% FBS and 1× of p/s.
On the day of the assay, the cells were harvested and resuspended in 0.25% BSA-DMEM and adjusted to a cell concentration of 1.6×10^6/ml. 15 μl of each compound was mixed with 120 μl of cell suspension in 96 well assay plates and incubated for 5 min prior to the addition of the radio-labeled ligand 2-MeS[^3H]-ADP (3 nM final in 0.25% BSA-DMEM) or unlabeled […] (for non-specific binding). The reaction was then incubated for 30 min at 37° C. and stopped by adding cold DMEM. The labeled and unlabeled cells were separated by a filtration method using a Packard Filtermate 196 on to the unfilter-96 GF/B plate. The plates were dyed in a 37° C. oven for 1-2 hours and 50 μl of MicroScint-20 (PerkinElmer) was added to each well. The radioactivity was measured using a TOPCOUNT beta counter (Packard). The percent inhibition for each compound was calculated by the change in radioactivity as a % inhibition of the control to obtain an IC50, as shown in Table 2.

Assay [3] deals with platelets. Briefly: In vitro platelet aggregation (ADP-induced, washed platelets). The format is cell-based. Particulars: Homo sapiens, washed platelets from healthy volunteers, agonist giving 60-70% aggregation, % inhibition of control ADP response. How it is done: Platelet aggregation studies were performed according to a published method (Bednar, B., Condra, C., Gould, R. J., and Connolly, T. M., Throm. Res., 77:453-463 (1995). Platelet-rich plasma (PRP) concentrates prepared from healthy volunteers who were aspirin free for at least 7 days by venipuncture using ACD-A as anticoagulant was purchased from Biological Specialties, Inc. (Colmar, Pa.). PRP was centrifuged at 730 g for 15 min. The platelet pellet was washed twice in CGS buffer (13 mM sodium citrate, 30 mM glucose, 120 mM NaCl, pH 6.5) containing 1 μ/ml apyrase (grade V, Sigma-Aldrich, St. Louis, Mo.), 1 mM EGTA, and resuspended in Tyrode's buffer (140 mM NaCl, 2.7 mM KCl, 12 mM NaHCO3, 0.76 mM Na2HPO4, 5.5 mM dextrose, 5.0 mM Hepes, 0.2% BSA, pH 7.4). The platelets were diluted to 3×10^8 platelets/ml and kept >45 min at 37° C. before use. 105 μl of washed platelets, 2 mM CaCl2 and […] of fibrinogen were added to a 96-well microliter plate.
Platelet aggregation was initiated by the addition of serial concentrations of ADP (BioData Corp. Horsham, Pa.). Buffer was added to one set of control wells. The assay plate was stirred constantly and intermittently placed in a microplate reader (Softmax, Molecular Devices, Menlo Park, Calif.) to read optical density (650 nm) at 0 and 5 minutes after the addition of the compound solutions. Aggregation was calculated as the decrease in optical density between the time 0- and 5-min measurements and expressed as % of aggregation. For the inhibition assay, platelet aggregation was conducted as described above except for compound additions. Test compounds were prepared in 100% DMSO and stored.
On the day of the assay, test compounds were diluted in the buffer containing 3% of DMSO as a 10× working solution. 15 μl of compound solutions were added to 105 μl of platelets 5 min prior to the addition of CaCl2 and fibrinogen.

T1 sequence (Q9H244 whole entry): as above

As to `CCCCNc1nc(SCCC)nc2c1nnn2[C@@H]1C[C@H](c2nnn[nH]2)[C@@H](O)[C@H]1O` [Cpd 2, (1R,2S,3R,5R)-3-(7-butylamino-5-propylsulfanyl-[1,2,3]triazolo[4,5-d]pyrimidin-3-yl)-5-(1H-tetrazol-5-yl)-cyclopentane-1,2-diol], the results for the IC50 in assay [1], in assay [2] and in assay [3] were 0.045 µM, 0.0137 µM and 0.315 µM, respectively.

Source of the values: patent publication US7566722B2, “Triazolopyrimidine derivatives as ADP P2Y12 receptor antagonists” (Janssen Pharmaceutica, N.V., priority 2006, dated 2009).
